Source: patent US20250144164A1, “COMPOSITIONS, METHODS, AND MEDICAL COMPOSITIONS FOR TREATMENT OF AND MAINTAINING THE HEALTH OF THE LIVER” (priority 2023, published 2025)

System: CCl4-induced hepatotoxicity model
Assay: Carbon tetrachloride (CCl4)-induced hepatotoxicity model, serum ALT and survival
Format: in vivo, ICR/CD-1 mice
Settings: CCL4 25 μl/kg; dose 50 mg/kg

In the case of `C=CCc1cc(OC)c2c(c1)OCO2` [Myristicin], the “% Change (inhibition in serum ALT)” value is reported as 99.7%.
